Data published in US20060269497A1, “Trichogenous agent” (YAMAHA HATSUDOKI KABUSHIKI KAISHA, priority 2005, published 2006).

Assays:
[1] = system: hair regrowth in telogen-phase C3H/HeN Slc mice; assay: Examination of trichogenous effect (hair regrowth on shaved back of mice); format: in vivo; conditions: 10 mg/mL test solution
Description: The trichogenous effect in mice of the astaxanthin monoester obtained in Preparation Example 1 was examined. The astaxanthin monoester obtained in Preparation Example 1 was dissolved in 20% (v/v) ethanol-containing a-tocopherol to prepare a 10 mg/mL astaxanthin monoester test solution. Male 7-week-old C3H/HeN Slc (SPF) mice were divided into three groups, i.e., a test group, a positive control group, and a negative control group, of 10 each. It should be noted that 45 to 95-day-old C3H mice are in the telogen phase of the hair cycle. Hairs were shaved from a site measuring 5 cm x 3 cm on the back of each mouse, and the above-described test solution was applied to that site in a dosage of 0.05 mL once a day for 18 days to observe the conditions of hair regrowth. In the positive control group, 1% (w/v) minoxidil (in 50% (v/v) ethanol), and in the negative control group, 50% (v/v) ethanol were applied. The conditions of hair regrowth were evaluated, using the following scoring criteria, expressed in terms of percentage of the surface area of the test site where the observed change occurred.
1: skin changed to gray (in less than 50% of area)
2: skin changed to gray (in 50% or more of area) and hair regrowth was observed (in less than 50% of area)
3: skin changed to gray (in 50% or more of area) and hair regrowth was observed (in 50% or more but less than 80% of area)
4: hair regrowth was observed distinctly (in 80% or more but less than 100% of area)
5: hair regrowth was observed distinctly (in 100% of area)

[2] = system: Human umbilical vein endothelial cells (HUVECs); assay: Measurement of 50% lethal concentration for HUVEC (alamarBlue); format: cell-based; conditions: 72 hours incubation, 250 μM = maximum concentration dissolved in DMSO
Description: Human umbilical vein endothelial cells (HUVECs) (ATCC CRL-1730) were obtained from American Type Culture Collection and precultivated in an Endothelial Cell Growth Medium (CELL APPLICATIONS, USA) containing 10% bovine fetal serum supplemented with 1% Antibiotic-Antimycotic solution (GIBCO BRL, USA) under a 5% CO2 atmosphere at 37° C.
A Matrigel matrix (BD Biosciences, USA) was melted and kept at 4° C. on ice, and then, 50 μL of the matrix were transferred to each well of a 96-well tissue culture plate. The plate was incubated at 37° C. for at least one hour to solidify the matrix solution. […]
After the incubation, 20 μL of a 90% alamarBlue reagent were added to individual wells, and incubated for an additional 6 hours. Then, the fluorescence intensity of each well was measured at an excitation wavelength of 530 nm and an emission wavelength of 590 nm using a Spectrafluor Plus plate reader to count the number of living cells. […] The 50% lethal concentration was calculated as the concentration at which the number of living cells was 50% of the number of cells at the start of the experiment.

## astaxanthin monoester
[1]; 0.05 mL applied once a day for 18 days to shaved back of male C3H/HeN mice, vs 50% ethanol
  trichogenous effect (hair regrowth scoring) compared to negative control group: markedly superior trichogenous effect
[1]; 0.05 mL once a day for 18 days, topical, mice, vs 1% (w/v) minoxidil
  appearance (onset) of trichogenous effect compared to positive control group: appeared a little later than in the positive control group
[1]; 0.05 mL once a day for 18 days, topical, mice, vs 1% minoxidil and negative control
  rate of progress of hair regrowth after the hairs begun to grow: higher than that in the positive control group
[2]
  LC50 (50% lethal concentration): ≥ 250 µM
